Source: ChEMBL document CHEMBL2203102, “Crucial Role of 3-Bromoethyl in Removing the Estrogenic Activity of 17β-HSD1 Inhibitor 16β-(m-Carbamoylbenzyl)estradiol” (ACS Med Chem Lett, 2011)

Tests used:
[1] = target: T1, 17-beta-hydroxysteroid dehydrogenase type 1 (Homo sapiens) (UniProt P14061); assay: Inhibition of 17beta-HSD1 in human T47D cells assessed as decrease in transformation of [14C]estrone to [14C]-estradiol at 0.1 uM after 24 hrs by thin layer chromatography; assay type: cell-based
T1 sequence (whole entry): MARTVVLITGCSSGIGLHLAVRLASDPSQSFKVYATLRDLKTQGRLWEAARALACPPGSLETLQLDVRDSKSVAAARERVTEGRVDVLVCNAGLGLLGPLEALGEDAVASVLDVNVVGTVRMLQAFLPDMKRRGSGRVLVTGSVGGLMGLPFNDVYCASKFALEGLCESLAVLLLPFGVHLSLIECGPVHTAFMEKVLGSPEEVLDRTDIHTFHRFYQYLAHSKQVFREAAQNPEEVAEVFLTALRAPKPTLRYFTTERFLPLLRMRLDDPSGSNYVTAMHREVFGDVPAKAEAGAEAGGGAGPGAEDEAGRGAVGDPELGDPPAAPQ

[2] = target: T1, 17-beta-hydroxysteroid dehydrogenase type 1 (Homo sapiens); assay: Inhibition of 17beta-HSD1 in human T47D cells assessed as decrease in transformation of [14C]estrone to [14C]-estradiol at 0.01 uM after 24 hrs by thin layer chromatography; assay type: cell-based
MCF7 = assay: Estrogenic activity in estrogen-starved estrogen sensitive human MCF7 cells assessed as stimulation of cell proliferation at 0.1 to 1 uM after 7 days by CellTiter96 assay; assay type: ADME, cell-based; conditions: mcf7, 168 h

Structure (SMILES) | inhibition [1] | inhibition [2] | Activity (MCF7)
C[C@]12CC[C@@H]3c4ccc(CO)cc4CC[C@H]3[C@@H]1C[C@H](Cc1cccc(C(N)=O)c1)[C@@H]2O |  | 14% | 
C[C@]12CC[C@@H]3c4ccc(CCBr)cc4CC[C@H]3[C@@H]1C[C@H](Cc1cccc(C(N)=O)c1)[C@@H]2O | 49% | 23% | Non-toxic

Now from value to molecule, other results behind:

inhibition [1] | inhibition [2] | Structure (SMILES) | Activity (MCF7)
36% | 20% | C[C@]12CC[C@@H]3c4ccc(CBr)cc4CC[C@H]3[C@@H]1C[C@H](Cc1cccc(C(N)=O)c1)[C@@H]2O | 
66% | 35% | C[C@]12CC[C@@H]3c4ccc(O)cc4CC[C@H]3[C@@H]1C[C@H](Cc1cccc(C(N)=O)c1)[C@@H]2O | 
17% | 7% | C[C@]12CC[C@@H]3c4ccc(CCO)cc4CC[C@H]3[C@@H]1C[C@H](Cc1cccc(C(N)=O)c1)[C@@H]2O | 
